Like-named read-outs stand apart in the source and are kept apart here. Blank lines part the entries; values can stand above or below the compound they belong to.
Columns and labels:
5-Lipoxygenase = target: T1, 5-Lipoxygenase (Rattus norvegicus, UniProt P12527); experiment: Assay of 5-lipoxygenase activity in RBL-1 cell extract (high speed supernatant); assay type: biochemical; conditions: 25 μM arachidonic acid, 5 min at 37° C.
T1 construct: The broken cell extract was then centrifuged at 10,000×g for 20 minutes (min) and the supernatant centrifuge at 100,000×g for 60 min; host or cells: RBL-1 cells, high speed (100,000×g) supernatant
T1 sequence (P12527 1-673): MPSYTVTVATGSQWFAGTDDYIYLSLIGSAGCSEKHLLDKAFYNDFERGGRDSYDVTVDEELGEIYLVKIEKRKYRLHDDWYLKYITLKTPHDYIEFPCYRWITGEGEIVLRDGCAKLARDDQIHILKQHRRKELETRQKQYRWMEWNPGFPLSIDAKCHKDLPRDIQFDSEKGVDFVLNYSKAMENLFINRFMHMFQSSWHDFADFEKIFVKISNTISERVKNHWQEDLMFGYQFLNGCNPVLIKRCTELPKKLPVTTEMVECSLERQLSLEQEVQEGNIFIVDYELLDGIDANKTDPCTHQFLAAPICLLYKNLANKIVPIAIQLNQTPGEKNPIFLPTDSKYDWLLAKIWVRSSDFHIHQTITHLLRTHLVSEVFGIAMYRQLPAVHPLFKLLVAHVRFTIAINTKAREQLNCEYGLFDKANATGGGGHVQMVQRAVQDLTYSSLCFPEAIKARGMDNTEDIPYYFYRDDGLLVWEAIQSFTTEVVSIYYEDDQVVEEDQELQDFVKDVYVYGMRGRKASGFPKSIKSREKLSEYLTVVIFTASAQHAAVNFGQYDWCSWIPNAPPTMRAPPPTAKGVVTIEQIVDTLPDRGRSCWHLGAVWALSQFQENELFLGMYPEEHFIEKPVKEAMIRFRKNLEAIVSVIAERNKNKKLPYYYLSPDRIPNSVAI
Experimental: For in vitro experiments, compounds were dissolved at appropriate concentrations in ethanol (final concentration 1.0%) and then diluted to final concentrations using the buffers indicated in the text.
The activities of these enzymes in extracts of RBL-1 cells were assayed using the method of Jakschik and Lee, Nature, 287, 51-52 (1980). RBL--1 cells were obtained from the American Type Culture Collection (#CRL 1378) and were grown at 37° C. (5% CO2 in air) in spinner culture in MEM supplemented with 10% heat inactivated fetal calf serum. Harvested cells were washed with 50 mM sodium phosphate buffer, pH 7.0, containing 1 mM EDTA and 0.1% gelatin, resuspended in fresh buffer (5×10^7 cells/ml) and disrupted by nitrogen cavitation using the Parr bomb at 750 psi for 10 min. The broken cell extract was then centrifuged at 10,000×g for 20 minutes (min) and the supernatant centrifuge at 100,000×g for 60 min. Aliquots (0.25 mls) of the supernatant were preincubated with or without drugs for 10 min, after which 12 mM CaCl2 was added and the reaction was initiated with […] arachidonic acid-1-^14 C (final concentration was 25 μM; specific activity 20,000 dpm/nmole). After incubation for 5 min at 37° C., the reaction was terminated by addition of 2 volumes (0.5 ml) ice cold acetone and the sample was allowed to deproteinize on ice for 10 min prior to centrifugation at 1,000×g for 10 min. The deproteinized supernatant was adjusted to pH 3.5 with 2N formic acid and extracted with 2 volumes of ice cold ethyl acetate. The extracted samples were dried under argon, redissolved in ethyl acetate and applied to Whatman LK5D thin layer chromatography (TLC) plates which were developed using the A-9 solvent system [organic phase of ethyl acetate: 2,2,5-trimethylpentane:acetic acid:water (110:50:20:10)] described by Hamberg and Samuelsson, J. Biol. Chem., 241, 257-263 (1966). Arachidonic acid, 5-HETE, LTB4 and PGD2 were quantified with a Berthold LB 2832 autoscanner.
Under these conditions, only the 5-lipoxygenase pathway metabolites were detectable. The 5-HETE and di-HETEs were formed at a linear rate, and substantial amounts of the arachidonic acid-1-^14 C substrate were utilized.
Drug-induced effects on enzyme activities are described as the concentration of drug causing a 50% inhibition of metabolite synthesis (IC50).

[1] = test system: Arachidonic Acid-Induced Mouse Ear Inflammation; experiment: Arachidonic acid-induced mouse ear inflammation (ear swelling); assay type: in vivo, male Balb/c mice; design: key to % Inhibition of Ear Swelling: *: p < .05; **: p < .01; ***: p < .001; NS: not significant; conditions: p.o.
Experimental: In the following Examples male Balb/c mice (20-28 g) were used. All mice were obtained from Charles River Breeding Laboratories, Kingston, N.Y. Within a single experiment, mice were sex and age matched.
Compounds of Formula (I), indomethacin, naproxen, and ibuprofen were each used as the free base. The compounds were homogenized in 0.5% tragacanth. Compounds were administered by gavage at the indicated dose in a final volume of 10 ml/kg.
Arachidonic acid in acetone (2 mg/20 μl ) was applied to the inner surface of the left ear. The thickness of both ears was then measured with a dial micrometer one hour after treatment, and the data were expressed as the change in thickness (10^-3 cm) between treated and untreated ears.
Test compounds were given orally in 0.5% tragacanth at the times indicated in the text prior to the topical application of arachidonic acid.
Parenteral administration of compound was accomplished by subcutaneous injection of solution as indicated.

myocardial infarction = conditions: dogs; Mollane et al.; cited from earlier work
rheumatoid arthritis = conditions: preliminary observation; Neumann et al.; cited from earlier work
[2] = test system: LTB4 and 5-HETE production; conditions: in vitro; Stenson et al.; cited from earlier work
psoriasis = conditions: Allen et al.; cited from earlier work
lipoxygenase = conditions: in vitro; cited from earlier work
[3] = 5HETE production by RBL1 high speed supernatant, read-out: 5-HETE IC50
[4] = LTB4 production by RBL1 high speed supernatant, read-out: LTB4 IC50

- IC50 (5-Lipoxygenase; [3]): 18500 nM
- IC50 (5-Lipoxygenase; [4]): 3300 nM
SMILES: Fc1ccc(-c2nc(SCCSc3nc(-c4ccc(F)cc4)c(-c4ccc(F)cc4)[nH]3)[nH]c2-c2ccc(F)cc2)cc1 [Compound 1, 2,2'-[ethanediylbis(thio)]bis[4,5-bis(4-fluorophenyl)-1H-imidazole]]

- IC50 (5-Lipoxygenase; [3]): 1700 nM
- IC50 (5-Lipoxygenase; [4]): 650 nM
SMILES: O=C(CSc1nc(-c2ccc(F)cc2)c(-c2ccncc2)[nH]1)CSc1nc(-c2ccc(F)cc2)c(-c2ccncc2)[nH]1 [Compound 2, 2-2'-[1,3-propan-2-onediylbis(thio)]bis[5-(4-pyridyl)-4-(4-fluorophenyl)-1H-imidazole]]
- % Inhibition of Ear Swelling ([1]; Table I, 2 mg arachidonic acid, thickness 1 h after treatment): NS

SMILES: COc1ccc2c(c1)c(CC(=O)O)c(C)n2C(=O)c1ccc(Cl)cc1 [indomethacin]
- antiinflammatory activity ([1]; 10 mg/kg): did not exhibit detectaole antiinflammatory activity

- IC50 (5-Lipoxygenase; [3]): 5300 nM
- IC50 (5-Lipoxygenase; [4]): 1600 nM
SMILES: O=C(CSc1nc(-c2ccc(F)cc2)c(-c2ccc(F)cc2)[nH]1)CSc1nc(-c2ccc(F)cc2)c(-c2ccc(F)cc2)[nH]1 [Compound 3, 2,2'-[1,3-propan-2-onediylbis(thio)]bis[4,5-bis-(4-fluorophenyl)-1H-imidazole]]

SMILES: NC1=NN(c2cccc(C(F)(F)F)c2)CC1 [BW755-C]
- area of infarction following coronary occlusion (myocardial infarction): reduced
- leukocyte infiltration into the ischaemic tissue (myocardial infarction): inhibition of leukocyte infiltration into the ischaemic tissue

SMILES: CC(C)Cc1ccc(C(C)C(=O)O)cc1 (stereo not shown) [ibuprofen]
- antiinflammatory activity ([1]; 250 mg/kg): did not exhibit detectaole antiinflammatory activity

SMILES: O=C(O)c1cc(/N=N/c2ccc(S(=O)(=O)Nc3ccccn3)cc2)ccc1O [Sulfasalazine]
- efficacy in rheumatoid arthritic patients (rheumatoid arthritis): efficacy, including remission
- inhibition of LTB4 and 5-HETE production [2]: inhibit LTB4 and 5-HETE production in vitro

SMILES: COc1ccc2cc([C@H](C)C(=O)O)ccc2c1 [naproxen]
- antiinflammatory activity ([1]; 100 mg/kg): did not exhibit detectaole antiinflammatory activity

SMILES: CC(C(=O)O)c1ccc2oc(-c3ccc(Cl)cc3)nc2c1 (stereo not shown) [benoxaprofen]
- effect on psoriasis (psoriasis): promising effect
- lipoxygenase inhibitory activity (lipoxygenase): in vitro lipoxygenase inhibitory activity
